From PubChem BioAssay AID1259407 (Chemical Carcinogenesis Research Information System (CCRIS), 2018) come the findings set out here.

This data set concerns CCRIS mutagenicity, Ames/micronucleus/aberration tests. In words: CCRIS mutagenicity studies.
The mark [1] stands for this setting: Test System: AMES SALMONELLA TYPHIMURIUM, Strain/Indicator: TA98, Metabolic Activation: NONE, Method: STANDARD PLATE.
Setting [2] is: Test System: AMES SALMONELLA TYPHIMURIUM, Strain/Indicator: TA100, Metabolic Activation: NONE, Method: STANDARD PLATE.
Setting [3] is: Test System: AMES SALMONELLA TYPHIMURIUM, Strain/Indicator: TA98, Metabolic Activation: NONE, Method: PREINCUBATION
Where [4] appears, read: Test System: AMES SALMONELLA TYPHIMURIUM, Strain/Indicator: TA100, Metabolic Activation: NONE, Method: PREINCUBATION

Active and inactive are the calls of the source. The rule behind the calls is not given here.

For the molecule `O=[N+]([O-])c1cccc(CO/N=C/c2nc3cc([N+](=O)[O-])ccc3n2Cc2ccc(F)cc2)c1`, the mutagenic call is, setting by setting: under setting [1], “inactive; negative”; (Test System: AMES SALMONELLA TYPHIMURIUM, Strain/Indicator: TA98, Metabolic Activation: RAT, LIVER, S-9, PHENOBARBITAL AND BETA-NAPHTHOFLAVONE, Method: STANDARD PLATE) “inactive; negative”; under setting [2], “inactive; negative”; (Test System: AMES SALMONELLA TYPHIMURIUM, Strain/Indicator: TA100, Metabolic Activation: RAT, LIVER, S-9, PHENOBARBITAL AND BETA-NAPHTHOFLAVONE, Method: STANDARD PLATE) “inactive; negative”.

`Nc1ccc2c(c1)-c1ccccc1C2`: the mutagenic call reads like this: (Test System: AMES SALMONELLA TYPHIMURIUM, Strain/Indicator: TA98, Metabolic Activation: RAT, LIVER, S-9, AROCLOR 1254 (2 OR 4%), Method: STANDARD PLATE) “active; positive”; (Test System: AMES SALMONELLA TYPHIMURIUM, Strain/Indicator: TA100, Metabolic Activation: RAT, LIVER, S-9, AROCLOR 1254 (4%), Method: STANDARD PLATE) “active; positive”; (Test System: AMES SALMONELLA TYPHIMURIUM, Strain/Indicator: TA1535, Metabolic Activation: RAT, LIVER, S-9, AROCLOR 1254 (4%), Method: STANDARD PLATE) “inactive; negative”; (Test System: AMES SALMONELLA TYPHIMURIUM, Strain/Indicator: TA1537, Metabolic Activation: RAT, LIVER, S-9, AROCLOR 1254 (4%), Method: STANDARD PLATE) “active; positive”.

For `CCN(CC)c1ccc2c(C(F)(F)F)cc(=O)oc2c1`, the mutagenic call (Test System: AMES SALMONELLA TYPHIMURIUM, Strain/Indicator: TA1538, Metabolic Activation: NONE, Method: STANDARD PLATE) was “inactive; negative” and the mutagenic call (Test System: AMES SALMONELLA TYPHIMURIUM, Strain/Indicator: TA1538, Metabolic Activation: RAT, LIVER, S-9, AROCLOR 1254, Method: STANDARD PLATE) is “inactive; negative”.

Regarding `C/[N+]([O-])=N/CO`, the mutagenic call was “active; positive” (Test System: AMES SALMONELLA TYPHIMURIUM, Strain/Indicator: G46, Metabolic Activation: NONE, Method: STANDARD PLATE); “active; positive” (Test System: AMES SALMONELLA TYPHIMURIUM, Strain/Indicator: TA100, Metabolic Activation: RAT, LIVER, S-9, KC500 OR PHENOBARBITAL, Method: LIQUID SUSPENSION); “active; positive” (Test System: AMES SALMONELLA TYPHIMURIUM, Strain/Indicator: TA1535, Metabolic Activation: RAT, LIVER, S-9, KC500 OR PHENOBARBITAL, Method: LIQUID SUSPENSION); “active; positive” (Test System: CHINESE HAMSTER V-79, Strain/Indicator: V-79/OUABAIN, Metabolic Activation: NONE, Method: STANDARD PLATE).

Consider `Nc1nc2ncc(CNc3ccc(C(=O)N[C@@H](CCC(=O)O)C(=O)O)cc3)nc2c(=O)[nH]1`, for which the mutagenic call reads like this: (Test System: AMES SALMONELLA TYPHIMURIUM, Strain/Indicator: TA97A, Metabolic Activation: NONE, Method: PREINCUBATION) “inactive; negative”; (Test System: AMES SALMONELLA TYPHIMURIUM, Strain/Indicator: TA97A, Metabolic Activation: RAT, LIVER, S-9, AROCLOR 1254, Method: PREINCUBATION) “inactive; negative”; (Test System: AMES SALMONELLA TYPHIMURIUM, Strain/Indicator: TA102, Metabolic Activation: NONE, Method: PREINCUBATION) “inactive; negative”; (Test System: AMES SALMONELLA TYPHIMURIUM, Strain/Indicator: TA102, Metabolic Activation: RAT, LIVER, S-9, AROCLOR 1254, Method: PREINCUBATION) “inactive; negative”.

Regarding `CCC(=C(CC)c1ccc(O)cc1)c1ccc(O)cc1`, the mutagenic call (End Point: IN VITRO MICRONUCLEUS, Test System: CHL/IU CELLS, Metabolic Activation: NONE) is “active; positive”.

As to `CNP(=O)(NC)NC`, the mutagenic call runs as follows: (Test System: AMES SALMONELLA TYPHIMURIUM, Strain/Indicator: TA100, Metabolic Activation: NONE, Method: SUSPENSION) “inactive; negative”; (Test System: AMES SALMONELLA TYPHIMURIUM, Strain/Indicator: TA100, Metabolic Activation: RAT, LIVER, S-9, AROCLOR 1254, Method: SUSPENSION) “inactive; negative”.

In the case of `O[C@@H]1c2cccc3ccc4cc5ccccc5c(c4c23)[C@H]1O`, the mutagenic call (Test System: CHINESE HAMSTER V-79, Strain/Indicator: V-79/8-AZAGUANINE, Metabolic Activation: NONE, Method: STANDARD PLATE) was “active; positive”.

Consider `Brc1ccc2c(c1)[C@H]1O[C@H]1[C@H]1CCCC[C@H]21`, for which the mutagenic call was “inactive; negative” under setting [1] and “inactive; negative” under setting [2].

Turning to `O[C@@H]1C=Cc2ccc3c(ccc4ccccc43)c2[C@H]1O`, the mutagenic call by setting is: under setting [1], “inactive; negative”; (Test System: AMES SALMONELLA TYPHIMURIUM, Strain/Indicator: TA98, Metabolic Activation: RAT, LIVER, S-9, AROCLOR 1254, Method: STANDARD PLATE) “active; positive”; under setting [2], “inactive; negative”; (Test System: AMES SALMONELLA TYPHIMURIUM, Strain/Indicator: TA100, Metabolic Activation: RAT, LIVER, S-9, AROCLOR 1254, Method: STANDARD PLATE) “active; positive”.

Regarding `Fc1cccc2c1ccc1cccnc12`, for the setting “Test System: AMES SALMONELLA TYPHIMURIUM, Strain/Indicator: TA100, Metabolic Activation: RAT, LIVER, S-9, PHENOBARBITAL AND 5,6-BENZOFLAVONE, Method: PREINCUBATION”, the mutagenic call is “active; positive”.

On to `CCOC(C)C(=O)C(O)O` (stereo not drawn), for which the mutagenic call is, setting by setting: (Test System: AMES SALMONELLA TYPHIMURIUM, Strain/Indicator: TA102, Metabolic Activation: NONE, Method: STANDARD PLATE) “active; positive”; (Test System: AMES SALMONELLA TYPHIMURIUM, Strain/Indicator: TA104, Metabolic Activation: NONE, Method: PREINCUBATION) “active; positive”; (Test System: AMES SALMONELLA TYPHIMURIUM, Strain/Indicator: TA2638A, Metabolic Activation: NONE, Method: STANDARD PLATE) “active; positive”.

In the case of `O=[N+]([O-])c1ccc2c3c1ccc1cccc(c13)[C@@H](O)[C@@H]2O`, the mutagenic call reads like this: under setting [3], “active; positive”; (Test System: AMES SALMONELLA TYPHIMURIUM, Strain/Indicator: TA98, Metabolic Activation: RAT, LIVER, S-9, AROCLOR 1254, Method: PREINCUBATION) “active; positive”; under setting [4], “active; positive”; (Test System: AMES SALMONELLA TYPHIMURIUM, Strain/Indicator: TA100, Metabolic Activation: RAT, LIVER, S-9, AROCLOR 1254, Method: PREINCUBATION) “active; positive”.

On to `CC(C)(c1cc(Br)c(O)c(Br)c1)c1cc(Br)c(O)c(Br)c1`, for which the mutagenic call is, setting by setting: (Test System: AMES SALMONELLA TYPHIMURIUM, Strain/Indicator: TA98, Metabolic Activation: HAMSTER, LIVER, S-9, AROCLOR 1254 (10%), Method: PREINCUBATION) “inactive; negative”; under setting [3], “inactive; negative”; (Test System: AMES SALMONELLA TYPHIMURIUM, Strain/Indicator: TA98, Metabolic Activation: RAT, LIVER, S-9, AROCLOR 1254 (10%), Method: PREINCUBATION) “inactive; negative”; (Test System: AMES SALMONELLA TYPHIMURIUM, Strain/Indicator: TA100, Metabolic Activation: HAMSTER, LIVER, S-9, AROCLOR 1254 (10%), Method: PREINCUBATION) “inactive; negative”; under setting [4], “inactive; negative”; (Test System: AMES SALMONELLA TYPHIMURIUM, Strain/Indicator: TA100, Metabolic Activation: RAT, LIVER, S-9, AROCLOR 1254 (10%), Method: PREINCUBATION) “inactive; negative”. Besides, the mutagenic call runs as follows: (Test System: AMES SALMONELLA TYPHIMURIUM, Strain/Indicator: TA1535, Metabolic Activation: HAMSTER, LIVER, S-9, AROCLOR 1254 (10%), Method: PREINCUBATION) “inactive; negative”; (Test System: AMES SALMONELLA TYPHIMURIUM, Strain/Indicator: TA1535, Metabolic Activation: NONE, Method: PREINCUBATION) “inactive; negative”; (Test System: AMES SALMONELLA TYPHIMURIUM, Strain/Indicator: TA1535, Metabolic Activation: RAT, LIVER, S-9, AROCLOR 1254 (10%), Method: PREINCUBATION) “inactive; negative”; (Test System: AMES SALMONELLA TYPHIMURIUM, Strain/Indicator: TA1537, Metabolic Activation: HAMSTER, LIVER, S-9, AROCLOR 1254 (10%), Method: PREINCUBATION) “inactive; negative”; (Test System: AMES SALMONELLA TYPHIMURIUM, Strain/Indicator: TA1537, Metabolic Activation: NONE, Method: PREINCUBATION) “inactive; negative”; (Test System: AMES SALMONELLA TYPHIMURIUM, Strain/Indicator: TA1537, Metabolic Activation: RAT, LIVER, S-9, AROCLOR 1254 (10%), Method: PREINCUBATION) “inactive; negative”.
